In the supplement of paper PMC10307832:

Experiments:
Assay in all cases: relative viability (nuclei count vs DMSO), 5 days (fraction); higher = more cells survive
201T = system: 201T
How it was run: (§1)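 One day after seeding in 1536-well plates, lung cancer cell lines were dosed by pin tool. Dosing was either single-drug or a fixed anchor-drug dose plus five library-drug doses (not always all listed) in √10 steps. After 5 days, nuclei were stained in one fix-and-stain step and counted on 4× images, and relative viability is the nuclei count of treated wells over that of vehicle wells, given as the median of duplicate plates.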

BEN = system: BEN
How it was run: as §1

EPLC-272H = system: EPLC-272H
How it was run: as §1

HCC-15 = system: HCC-15
How it was run: as §1

HCC-78 = system: HCC-78
How it was run: as §1

LCLC-97TM1 = system: LCLC-97TM1
How it was run: as §1

LU99A = system: LU99A
How it was run: as §1

NCI-H1355 = system: NCI-H1355
How it was run: as §1

NCI-H1395 = system: NCI-H1395
How it was run: as §1

NCI-H2009 = system: NCI-H2009
How it was run: as §1

NCI-H2085 = system: NCI-H2085
How it was run: as §1

NCI-H2126 = system: NCI-H2126
How it was run: as §1

NCI-H2228 = system: NCI-H2228
How it was run: as §1

NCI-H2342 = system: NCI-H2342
How it was run: as §1

NCI-H23 = system: NCI-H23
How it was run: as §1

NCI-H2405 = system: NCI-H2405
How it was run: as §1

NCI-H322M = system: NCI-H322M
How it was run: as §1

NCI-H460 = system: NCI-H460
How it was run: as §1

NCI-H647 = system: NCI-H647
How it was run: as §1

NCI-H650 = system: NCI-H650
How it was run: as §1

NCI-H661 = system: NCI-H661
How it was run: as §1

NCI-H838 = system: NCI-H838
How it was run: as §1

PC-14 = system: PC-14
How it was run: as §1

Structure (SMILES): Cc1cn(-c2cc(NC(=O)c3ccc(C)c(Nc4nccc(-c5cccnc5)n4)c3)cc(C(F)(F)F)c2)cn1 [Nilotinib] + Cc1nc(Nc2ncc(C(=O)Nc3c(C)cccc3Cl)s2)cc(N2CCN(CCO)CC2)n1 [Dasatinib] (partner 0.075 µM)
- relative viability (201T; first compound 0.01 µM): 0.404
- relative viability (201T; first compound 0.03162 µM): 0.451
- relative viability (201T; first compound 0.1 µM): 0.295
- relative viability (BEN; first compound 0.001 µM): 0.336
- relative viability (BEN; first compound 0.003162 µM): 0.338
- relative viability (BEN; first compound 0.01 µM): 0.278
- relative viability (BEN; first compound 0.03162 µM): 0.322
- relative viability (BEN; first compound 0.1 µM): 0.221
- relative viability (EPLC-272H; first compound 0.001 µM): 0.303
- relative viability (EPLC-272H; first compound 0.003162 µM): 0.343
- relative viability (EPLC-272H; first compound 0.01 µM): 0.364
- relative viability (EPLC-272H; first compound 0.03162 µM): 0.226
- relative viability (EPLC-272H; first compound 0.1 µM): 0.107
- relative viability (HCC-15; first compound 0.001 µM): 0.607
- relative viability (HCC-15; first compound 0.003162 µM): 0.689
- relative viability (HCC-15; first compound 0.01 µM): 0.665
- relative viability (HCC-15; first compound 0.03162 µM): 0.456
- relative viability (HCC-15; first compound 0.1 µM): 0.433
- relative viability (HCC-78; first compound 0.001 µM): 0.442
- relative viability (HCC-78; first compound 0.003162 µM): 0.357
- relative viability (HCC-78; first compound 0.01 µM): 0.404
- relative viability (HCC-78; first compound 0.03162 µM): 0.252
- relative viability (HCC-78; first compound 0.1 µM): 0.268
- relative viability (LCLC-97TM1; first compound 0.001 µM): 0.855
- relative viability (LCLC-97TM1; first compound 0.003162 µM): 0.896
- relative viability (LCLC-97TM1; first compound 0.01 µM): 0.971
- relative viability (LCLC-97TM1; first compound 0.03162 µM): 0.654
- relative viability (LCLC-97TM1; first compound 0.1 µM): 0.617
- relative viability (LU99A; first compound 0.001 µM): 0.482
- relative viability (LU99A; first compound 0.003162 µM): 0.702
- relative viability (LU99A; first compound 0.01 µM): 0.557
- relative viability (LU99A; first compound 0.03162 µM): 0.359
- relative viability (LU99A; first compound 0.1 µM): 0.282
- relative viability (NCI-H1355; first compound 0.001 µM): 0.653
- relative viability (NCI-H1355; first compound 0.003162 µM): 0.751
- relative viability (NCI-H1355; first compound 0.01 µM): 0.556
- relative viability (NCI-H1355; first compound 0.03162 µM): 0.46
- relative viability (NCI-H1355; first compound 0.1 µM): 0.333
- relative viability (NCI-H1395; first compound 0.001 µM): 0.445
- relative viability (NCI-H1395; first compound 0.003162 µM): 0.357
- relative viability (NCI-H1395; first compound 0.01 µM): 0.428
- relative viability (NCI-H1395; first compound 0.03162 µM): 0.357
- relative viability (NCI-H1395; first compound 0.1 µM): 0.333
- relative viability (NCI-H2009; first compound 0.001 µM): 0.278
- relative viability (NCI-H2009; first compound 0.003162 µM): 0.258
- relative viability (NCI-H2009; first compound 0.01 µM): 0.261
- relative viability (NCI-H2009; first compound 0.03162 µM): 0.212
- relative viability (NCI-H2009; first compound 0.1 µM): 0.199
- relative viability (NCI-H2085; first compound 0.001 µM): 0.28
- relative viability (NCI-H2085; first compound 0.003162 µM): 0.198
- relative viability (NCI-H2085; first compound 0.01 µM): 0.179
- relative viability (NCI-H2085; first compound 0.03162 µM): 0.231
- relative viability (NCI-H2085; first compound 0.1 µM): 0.248
- relative viability (NCI-H2126; first compound 0.001 µM): 0.534
- relative viability (NCI-H2126; first compound 0.003162 µM): 0.522
- relative viability (NCI-H2126; first compound 0.01 µM): 0.513
- relative viability (NCI-H2126; first compound 0.03162 µM): 0.5
- relative viability (NCI-H2126; first compound 0.1 µM): 0.459
- relative viability (NCI-H2228; first compound 0.003162 µM): 0.622
- relative viability (NCI-H2228; first compound 0.01 µM): 0.628
- relative viability (NCI-H2228; first compound 0.03162 µM): 0.424
- relative viability (NCI-H2228; first compound 0.1 µM): 0.159
- relative viability (NCI-H2342; first compound 0.001 µM): 0.277
- relative viability (NCI-H2342; first compound 0.003162 µM): 0.303
- relative viability (NCI-H2342; first compound 0.01 µM): 0.302
- relative viability (NCI-H2342; first compound 0.03162 µM): 0.273
- relative viability (NCI-H2342; first compound 0.1 µM): 0.298
- relative viability (NCI-H23; first compound 0.001 µM): 0.691
- relative viability (NCI-H23; first compound 0.003162 µM): 0.681
- relative viability (NCI-H23; first compound 0.01 µM): 0.823
- relative viability (NCI-H23; first compound 0.03162 µM): 0.309
- relative viability (NCI-H23; first compound 0.1 µM): 0.508
- relative viability (NCI-H2405; first compound 0.001 µM): 0.219
- relative viability (NCI-H2405; first compound 0.003162 µM): 0.205
- relative viability (NCI-H2405; first compound 0.01 µM): 0.214
- relative viability (NCI-H2405; first compound 0.03162 µM): 0.221
- relative viability (NCI-H2405; first compound 0.1 µM): 0.207
- relative viability (NCI-H322M; first compound 0.001 µM): 0.295
- relative viability (NCI-H322M; first compound 0.003162 µM): 0.279
- relative viability (NCI-H322M; first compound 0.03162 µM): 0.282
- relative viability (NCI-H322M; first compound 0.1 µM): 0.234
- relative viability (NCI-H460; first compound 0.001 µM): 0.487
- relative viability (NCI-H460; first compound 0.003162 µM): 0.384
- relative viability (NCI-H460; first compound 0.01 µM): 0.65
- relative viability (NCI-H460; first compound 0.03162 µM): 0.444
- relative viability (NCI-H460; first compound 0.1 µM): 0.432
- relative viability (NCI-H647; first compound 0.001 µM): 0.195
- relative viability (NCI-H647; first compound 0.003162 µM): 0.274
- relative viability (NCI-H647; first compound 0.01 µM): 0.262
- relative viability (NCI-H647; first compound 0.03162 µM): 0.101
- relative viability (NCI-H647; first compound 0.1 µM): 0.0706
- relative viability (NCI-H650; first compound 0.001 µM): 0.462
- relative viability (NCI-H650; first compound 0.003162 µM): 0.479
- relative viability (NCI-H650; first compound 0.01 µM): 0.49
- relative viability (NCI-H650; first compound 0.03162 µM): 0.408
- relative viability (NCI-H650; first compound 0.1 µM): 0.379
- relative viability (NCI-H661; first compound 0.001 µM): 0.923
- relative viability (NCI-H661; first compound 0.003162 µM): 0.956
- relative viability (NCI-H661; first compound 0.01 µM): 0.921
- relative viability (NCI-H661; first compound 0.03162 µM): 0.635
- relative viability (NCI-H661; first compound 0.1 µM): 0.613
- relative viability (NCI-H838; first compound 0.001 µM): 0.279
- relative viability (NCI-H838; first compound 0.003162 µM): 0.302
- relative viability (NCI-H838; first compound 0.01 µM): 0.278
- relative viability (NCI-H838; first compound 0.03162 µM): 0.268
- relative viability (NCI-H838; first compound 0.1 µM): 0.291
- relative viability (PC-14; first compound 0.001 µM): 0.226
- relative viability (PC-14; first compound 0.003162 µM): 0.254
- relative viability (PC-14; first compound 0.01 µM): 0.198
- relative viability (PC-14; first compound 0.03162 µM): 0.16
- relative viability (PC-14; first compound 0.1 µM): 0.0622
